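1) Cells in 96-well plates. 2) Compound, 48 h, 5 concentrations. 3) Linear interpolation between surrounding doses. 4) Unreached endpoint = highest concentration. TGI: concentration producing complete growth inhibition.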
How the values were obtained:
Test in all cases: growth of human tumour cells (NCI), 48 h
[1] = tested on: 786-0 renal
[2] = tested on: A549 NSCLC
[3] = tested on: CCRF-CEM leukemia
[4] = tested on: COLO 205 colon
[5] = tested on: DMS 114 small cell lung
[6] = tested on: DMS 273 small cell lung
[7] = tested on: HCT-116 colon
[8] = tested on: HL-60(TB) leukemia
[9] = tested on: HOP-18 NSCLC
[10] = tested on: HT29 colon
[11] = tested on: IGROV1 ovarian
[12] = tested on: K-562 leukemia
[13] = tested on: KM12 colon
[14] = tested on: KM20L2 colon
[15] = tested on: LOX IMVI melanoma
[16] = tested on: LXFL 529 NSCLC
[17] = tested on: M14 melanoma
[18] = tested on: M19-MEL melanoma
[19] = tested on: MOLT-4 leukemia
[20] = tested on: NCI-H23 lung
[21] = tested on: NCI-H460 lung
[22] = tested on: NCI-H522 lung
[23] = tested on: OVCAR-3 ovarian
[24] = tested on: OVCAR-4 ovarian
[25] = tested on: OVCAR-8 ovarian
[26] = tested on: RPMI-8226 leukemia
[27] = tested on: RXF 393 renal
[28] = tested on: SF-268 CNS
[29] = tested on: SF-295 CNS
[30] = tested on: SF-539 CNS
[31] = tested on: SK-MEL-28 melanoma
[32] = tested on: SK-MEL-5 melanoma
[33] = tested on: SK-OV-3 ovarian
[34] = tested on: SN12C renal
[35] = tested on: SNB-19 CNS
[36] = tested on: SNB-75 CNS
[37] = tested on: SNB-78 CNS
[38] = tested on: SW-620 colon
[39] = tested on: TK-10 renal
[40] = tested on: U251 CNS
[41] = tested on: UACC-62 melanoma
[42] = tested on: XF 498 CNS
[43] = tested on: A498 renal
[44] = tested on: ACHN renal
[45] = tested on: BT-549 breast
[46] = tested on: CAKI-1 renal
[47] = tested on: DLD-1 colon
[48] = tested on: DU-145 prostate
[49] = tested on: EKVX NSCLC
[50] = tested on: HCC-2998 colon
[51] = tested on: HCT-15 colon
[52] = tested on: HOP-62 NSCLC
[53] = tested on: HOP-92 NSCLC
[54] = tested on: MALME-3M melanoma
[55] = tested on: MCF7 breast
[56] = tested on: MDA-MB-435
[57] = tested on: MDA-N
[58] = tested on: NCI-H226 lung
[59] = tested on: OVCAR-5 ovarian
[60] = tested on: PC-3 prostate
[61] = tested on: SK-MEL-2 melanoma
[62] = tested on: SR leukemia
[63] = tested on: UACC-257 melanoma
[64] = tested on: UO-31 renal

## COc1ccc2c(c1)CCCC1C3=NCCC3(C)CSC21 (centres undefined)
[1]
  TGI: > 100 µM
[2]
  TGI: > 100 µM
[3]
  TGI: > 100 µM
[4]
  TGI: > 100 µM
[5]
  TGI: > 100 µM
[6]
  TGI: > 100 µM
[7]
  TGI: > 100 µM
[8]
  TGI: 44.7 µM
[9]
  TGI: > 100 µM
[10]
  TGI: > 100 µM
[11]
  TGI: > 100 µM
[12]
  TGI: > 100 µM
[13]
  TGI: > 100 µM
[14]
  TGI: 72.7 µM
[15]
  TGI: > 100 µM
[16]
  TGI: > 100 µM
[17]
  TGI: > 100 µM
[18]
  TGI: > 100 µM
[19]
  TGI: > 100 µM
[20]
  TGI: > 100 µM
[21]
  TGI: > 100 µM
[22]
  TGI: > 100 µM
[23]
  TGI: > 100 µM
[24]
  TGI: > 100 µM
[25]
  TGI: > 100 µM
[26]
  TGI: > 100 µM
[27]
  TGI: > 100 µM
[28]
  TGI: > 100 µM
[29]
  TGI: > 100 µM
[30]
  TGI: > 100 µM
[31]
  TGI: > 100 µM
[32]
  TGI: > 100 µM
[33]
  TGI: > 100 µM
[34]
  TGI: > 100 µM
[35]
  TGI: > 100 µM
[36]
  TGI: > 100 µM
[37]
  TGI: > 100 µM
[38]
  TGI: > 100 µM
[39]
  TGI: > 100 µM
[40]
  TGI: > 100 µM
[41]
  TGI: > 100 µM
[42]
  TGI: > 100 µM

## NC1=C(Cl)C(=O)c2ccccc2C1=O
[1]
  TGI: 20.2 µM
[43]
  TGI: 35.7 µM
[2]
  TGI: 8.44 µM
[44]
  TGI: 22.7 µM
[45]
  TGI: 4.19 µM
[46]
  TGI: 34.1 µM
[3]
  TGI: 32.5 µM
[4]
  TGI: 30.8 µM
[47]
  TGI: 37.9 µM
[5]
  TGI: 13.4 µM
[6]
  TGI: 18.9 µM
[48]
  TGI: 3.84 µM
[49]
  TGI: 28.4 µM
[50]
  TGI: 24.4 µM
[7]
  TGI: 11.6 µM
[51]
  TGI: 12.2 µM
[8]
  TGI: 45.4 µM
[9]
  TGI: 22 µM
[52]
  TGI: 32 µM
[53]
  TGI: 33.7 µM
[10]
  TGI: 30.4 µM
[11]
  TGI: 26 µM
[12]
  TGI: 39 µM
[13]
  TGI: 25.7 µM
[14]
  TGI: 28 µM
[15]
  TGI: 7.91 µM
[16]
  TGI: 25.2 µM
[17]
  TGI: 3.26 µM
[18]
  TGI: 1.76 µM
[54]
  TGI: 3.13 µM
[55]
  TGI: 5.25 µM
[56]
  TGI: 2.05 µM
[57]
  TGI: 3.19 µM
[19]
  TGI: 22.4 µM
[58]
  TGI: 18.3 µM
[20]
  TGI: 6.32 µM
[21]
  TGI: 11 µM
[22]
  TGI: 18.5 µM
[23]
  TGI: 7.29 µM
[24]
  TGI: 15.9 µM
[59]
  TGI: 23.7 µM
[25]
  TGI: 27.8 µM
[60]
  TGI: 6 µM
[26]
  TGI: 43.6 µM
[27]
  TGI: 18.8 µM
[28]
  TGI: 33.2 µM
[29]
  TGI: 18.1 µM
[30]
  TGI: 20.8 µM
[61]
  TGI: > 44 µM
[31]
  TGI: 11.3 µM
[32]
  TGI: 2.09 µM
[33]
  TGI: 33.1 µM
[34]
  TGI: 15.9 µM
[35]
  TGI: 24.2 µM
[36]
  TGI: 27.3 µM
[37]
  TGI: > 63.3 µM
[62]
  TGI: 32.9 µM
[38]
  TGI: 14.6 µM
[39]
  TGI: 49 µM
[40]
  TGI: 13.9 µM
[63]
  TGI: 8.38 µM
[41]
  TGI: 2.76 µM
[64]
  TGI: 29.9 µM
[42]
  TGI: 24.5 µM

## c1ccc(Nc2nnc(-c3nsc4ccccc34)o2)cc1
[2]
  TGI: > 100 µM
[44]
  TGI: > 100 µM
[3]
  TGI: > 100 µM
[4]
  TGI: > 100 µM
[5]
  TGI: > 100 µM
[6]
  TGI: > 100 µM
[49]
  TGI: > 100 µM
[50]
  TGI: > 100 µM
[7]
  TGI: > 100 µM
[51]
  TGI: > 100 µM
[8]
  TGI: > 100 µM
[9]
  TGI: > 100 µM
[52]
  TGI: > 100 µM
[53]
  TGI: > 100 µM
[10]
  TGI: > 100 µM
[11]
  TGI: > 100 µM
[12]
  TGI: > 100 µM
[13]
  TGI: > 100 µM
[14]
  TGI: > 100 µM
[15]
  TGI: > 100 µM
[16]
  TGI: > 100 µM
[17]
  TGI: > 100 µM
[18]
  TGI: > 100 µM
[19]
  TGI: > 100 µM
[20]
  TGI: > 100 µM
[21]
  TGI: > 100 µM
[23]
  TGI: 45.2 µM
[24]
  TGI: > 100 µM
[59]
  TGI: > 100 µM
[25]
  TGI: > 100 µM
[26]
  TGI: > 100 µM
[27]
  TGI: > 100 µM
[28]
  TGI: > 100 µM
[30]
  TGI: > 100 µM
[61]
  TGI: > 100 µM
[31]
  TGI: > 100 µM
[32]
  TGI: > 100 µM
[34]
  TGI: > 100 µM
[35]
  TGI: > 100 µM
[36]
  TGI: 78.4 µM
[37]
  TGI: > 100 µM
[62]
  TGI: > 100 µM
[38]
  TGI: > 100 µM
[39]
  TGI: > 100 µM
[40]
  TGI: > 100 µM
[63]
  TGI: > 100 µM
[41]
  TGI: > 100 µM
[64]
  TGI: > 100 µM

Reference: PubChem BioAssay (NCI)
